Measurements: patent publication US11826453B2, “Hair care composition comprising piroctone olamine” (Conopco, Inc., priority 2019, dated 2023)

Test: Octopirox degradation under cool white light (LCMS / UPLC-UV)
Type: physicochemical
Settings: 24 hours
Description: The cool white light (CWL) irradiation was carried out in an X-Rite (Macbeth) Spectra Light III chamber. CWL mode was chosen which provides stable irradiation mimicking the indoor light. The intensity of light was fixed which estimated at 6 μw/cm2 for UVA and 1.5 μw/cm^2 for UVB. The chamber temperature was equal to the room temperature (20±2° C.). The sample was placed in a line close to the center of the chamber. After 24 hours, the sample was analyzed by LCMS (Water UPLC coupled with Quatro Micro MS), by quantitatively measured using UPLC-UV analysis following DPS derivatization.
The separation was performed by a UPLC BEH C18 column and the mobile phase was acetonitrile/water (60/40, 0.1% formic acid) in isocratic elution. Electrospray ionization in positive mode was applied for MS scan.

Question: Which “quantity of Octopirox® after cool white light” value (cool white light (indoor light; 6 μw/cm2 UVA, 1.5 μw/cm^2 UVB), 20±2° C.) does the source give for `Cc1cc(CC(C)CC(C)(C)C)n(O)c(=O)c1.NCCO` (centres unmarked) [Octopirox®, Piroctone olamine] here?
Answer: reduced

Question: What about the “compound of formula 1 in the degradation product” value (cool white light, LCMS) of the same compound?
Answer: no compound of formula 1 can be detected
